Results on three molecules are retold here after PMC3242434 (Bioorganic & medicinal chemistry letters, 2011).

Experiment [1] has as its system Hsp90. In words: Western blot analyses of Hsp90 client protein degradation in MCF-7 cells. In kind it is cell-based.
Experiment [2] relates to MCF7 breast cancer cell-line. Briefly: Anti-proliferative activity against MCF7 breast cancer cell-line. As to conditions: Homo sapiens, MCF7, read-out: IC50 against MCF-7. It is filed as cell-based.

With `COc1ccc(Oc2ccc3cc(NC(=O)c4ccc(O)c(CC=C(C)C)c4)c(=O)oc3c2C)cc1` [Compound 14], in experiment [1], the “Hsp90 client protein degradation” value is given as “client protein degradation was observed” and the “Hsp90 induction (heat shock response)” value is recorded as “no Hsp90 induction was seen”.

`COc1ccc(Cc2ccc3cc(NC(=O)c4ccc(OC(C)=O)c(CC=C(C)C)c4)c(=O)oc3c2C)cc1` [Compound 43]: in experiment [1], the “Hsp90 client protein degradation” value is “client protein degradation was observed” and the “Hsp90 induction (heat shock response)” value was “no Hsp90 induction was seen”.

For the molecule `COc1ccc(Cc2ccc3cc(NC(=O)c4ccc(O)c(CC=C(C)C)c4)c(=O)oc3c2C)cc1OC` [Compound 48], in experiment [2], the IC50 is approximately 13 µM.
